The source of these data is patent publication US20260001828A1, “BIOBASED SURFACTANT AND ANTIOXIDANT” (BLOOM BIORENEWABLES SA, priority 2022, published 2026).

Data set [1] in a line: DPPH free radical antioxidant activity test (UV/visible spectrophotometry, 517 nm). The format is biochemical. The method, then:
The antioxidant activity is assessed by measuring the capacity of the compound to react with a free radical (here 2,2-diphenyl-1-picrylhydrazyl also known as DPPH). […] Butylated hydroxytoluene (BHT) and vitamin E were used as […] substances (positive control) and glycerol as negative control (see FIGS. 3 and 4).
(In general: Loss of DPPH colour is used to gauge radical scavenging.)

The nature of data set [2]: Surface tension by pendant drop method, water/air interface. In kind it is physicochemical. The method, then: Surface tension measurements were performed using the pendant drop method by Kruss EasyDrop Standard drop shape analysis system. […]

In the case of `CCCc1cc(OC)c(O)c(OC)c1` [4-propylsyringol], the inhibition rate is listed as 65% in data set [1] (concentration of 5 μg/mL), 84% in data set [1] (concentration of 10 μg/mL) and 85% in data set [1] (concentration of 50 μg/mL). The Water/air interface (surface tension) was determined as 48.3 mN/m in data set [2] (concentration 0.10 wt %), 34.9 mN/m in data set [2] (concentration 0.50 wt %) and 32.3 mN/m in data set [2] (concentration 1.00 wt %).

As to `Cc1cc(C(C)(C)C)c(O)c(C(C)(C)C)c1` [BHT, Butylated hydroxytoluene], the inhibition rate in data set [1] (concentration of 5 μg/mL) came to 32%; in data set [1] (concentration of 10 μg/mL) it was 54%; in data set [1] (concentration of 50 μg/mL) it was 85%.

Turning to `CCCCC(CC)COC(=O)CC(C(=O)OCC(CC)CCCC)S(=O)(=O)[O-].[Na+]` (centres unmarked) [DOSS, Dioctyl Sodium Sulfosuccinate], in data set [2] (concentration 0.20 wt %), the Water/air interface (surface tension) was 51 mN/m.

Take `CCCc1cc(OC)c([O-])c(OC)c1.[Na+]` [PSNa, 4-propylsyringol sodium salt]: the values for the Water/air interface (surface tension) in data set [2] (concentration 0.10 wt %), in data set [2] (concentration 0.50 wt %) and in data set [2] (concentration 1.00 wt %) were 45.1 mN/m, 39.8 mN/m and 33.8 mN/m, respectively.

As to `CCCCCCCCCCCCOS(=O)(=O)[O-].[Na+]` [SLS, sodium lauryl sulfate], the Water/air interface (surface tension) in data set [2] (concentration 0.20 wt %) was found to be 35.4 mN/m.

Regarding “Sodium linear alkylbenzenesulfonate [NaLAS]”, the Water/air interface (surface tension) in data set [2] (concentration 0.10 wt %) amounted to 33 mN/m.

For the molecule nonylphenol ethoxylate [NPE], the Water/air interface (surface tension) in data set [2] (concentration 0.02 wt %) turned out to be 36 mN/m.

Take sodium lauryl ether sulfate [SLES]: the Water/air interface (surface tension) in data set [2] (concentration 0.02 wt %) is 33.8 mN/m.

vitamin E: the values for the inhibition rate in data set [1] (concentration of 5 μg/mL), in data set [1] (concentration of 10 μg/mL) and in data set [1] (concentration of 50 μg/mL) were 28%, 61% and 84%, respectively.
